Data set [1] concerns 1A9 human ovarian cancer cell line. Description: 72 hour growth-inhibition (cytotoxicity) assay, 1A9 cells. In kind it is cell-based. Conditions: for IC50: Homo sapiens, 1A9; for RAEpoB (relative activity), 1A9: ratio of IC50 of EpoB to IC50 of the tested compound in the concurrent assay.
The test system of data set [2] is 1A9/PTX10, Taxol-resistant 1A9 cell line (β270 Phe→Val). Nature of the data set: 72 hour growth-inhibition (cytotoxicity) assay, 1A9/PTX10 cells. Type of data set: cell-based, human. Conditions: for IC50: Homo sapiens, 1A9/ptx-10; for RRp (relative resistance), 1A9/PTX10: IC50 of 1A9/PTX10 divided by IC50 of the parental cell line 1A9; for RAEpoB (relative activity), 1A9/PTX10: ratio of IC50 of EpoB to IC50 of the tested compound in the concurrent assay.

The subject of data set [3] is 1A9/A8, EpoA-resistant 1A9 cell line (β274 Thr→Ile). Description: 72 hour growth-inhibition (cytotoxicity) assay, 1A9/A8 cells. Type of data set: cell-based, human. The settings on record: for IC50: Homo sapiens, 1A9; for RRp (relative resistance), 1A9/A8: IC50 of 1A9/A8 divided by IC50 of the parental cell line; for RAEpoB (relative activity), 1A9/A8: ratio of IC50 of EpoB to IC50 of the tested compound in the concurrent assay.

Data set [4] concerns A2780/AD10, drug-resistant clone of human ovarian carcinoma A2780 overexpressing P-glycoprotein. Description: 72 hour growth-inhibition (cytotoxicity) assay, A2780/AD10 cells. Type of data set: cell-based. Conditions: for IC50: Homo sapiens, A2780, 72 hour growth inhibition, sulforhodamine-B staining, mean of 3-5 experiments ± SEM; for RRp (relative resistance), A2780/AD10: IC50 of A2780/AD10 divided by IC50 of the parental cell line; for potency enhancement over EpoB, A2780/AD10: PgP-overexpressing cell line. A general note: The SRB assay estimates cell density from bound dye.

For data set [5], the system named is KB-31 human epidermoid cancer cell line. Nature of the data set: 72 hour growth-inhibition (cytotoxicity) assay, KB-31 cells. In kind it is cell-based. Conditions: for IC50: Homo sapiens.
Data set [6] has as its system drug-sensitive and drug-resistant human cancer cell lines. Description: Cytotoxicity assays across the panel of cell lines (summary in words). The settings on record: summary of Tables 1A-1C. In kind it is cell-based.
The test system of data set [7] is KB-8511, Taxol-resistant (Pgp-overexpression) KB cell line. Description: 72 hour growth-inhibition (cytotoxicity) assay, KB-8511 cells.
Experimental: In addition, further cytotoxicity studies were carried out using a pair of drug-sensitive parental human epidermoid carcinoma cells (KB-31) and its Taxol™-resistant Pgp-overexpressing subline (KB-5811).
The mark [8] stands for this setting: 72 hour growth inhibition, sulforhodamine-B staining, mean of 3-5 independent experiments ± standard error of the mean, read-out: 1A9 IC50.
Setting [9] is: Table 2, tested epothilone, unit from Table 1A note a, read-out: IC50, 1A9 (Table 2).
Where [10] appears, read: 72 hour growth inhibition, sulforhodamine-B staining, mean of 3-5 experiments ± SEM, read-out: 1A9/PTX10 IC50.
Setting [11] is: Table 2, tested epothilone, unit from Table 1A note a, read-out: IC50, 1A9/PTX10 (Table 2).
Setting [12] is: 72 hour growth inhibition, sulforhodamine-B staining, mean of 3-5 experiments ± SEM, read-out: 1A9/A8 IC50.
The mark [13] stands for this setting: Table 2, tested epothilone, unit from Table 1A note a, read-out: IC50, 1A9/A8 (Table 2).
Setting [14] is: KB 3-1, 72 h, read-out: KB-31 IC50.
Setting [15] is: KB 3-1, read-out: IC50, KB-31 (Table 2).
Where [16] appears, read: read-out: IC50, KB-5811 (Table 2), Table 2, tested epothilone, cell line KB-5811, unit from Table 1A note a.
[17] abbreviates: read-out: KB-8511 IC50, 72 hour growth inhibition, methylene blue staining, mean of 3-5 experiments ± SEM.

Values joined by “and” are separate entries in the source; they are usually repeats but may differ in a detail not shown here. Identical values can stand only once. “Also recorded” adds a separate entry of the source. Like-named read-outs stand apart in the source and are kept apart here.

For `CSc1cc(/C=C(\C)[C@@H]2C[C@@H]3O[C@]3(C)CCC[C@H](C)[C@H](O)[C@@H](C)C(=O)C(C)(C)[C@@H](O)CC(=O)O2)nn1C` [Compound 16], the “potency (activity) increase as compared to EpoB, 1A9” value in data set [1] (1A9 parental cell line) is 17 fold and 16.5 fold. Besides, the IC50 in data set [1] (setting [8]) was determined as 0.06 ± 0.04 nM; in data set [1] (setting [9]), 0.06 nM; in data set [2] (setting [10]) it was 0.1 nM; in data set [2] (setting [11]), 0.1 nM; in data set [3] (setting [12]), 0.6 ± 0.5 nM; in data set [3] (setting [13]) it was 0.6 nM. Also, the IC50 in data set [4] came out at 30.3 ± 17.7 nM; in data set [5] (setting [14]) it was 0.09 ± 0.01 nM; in data set [5] (setting [15]), 0.09 nM; in data set [7] (setting [16]), 0.14 nM; in data set [7] (setting [17]) it was 0.14 ± 0.01 nM. Further, in data set [1], the “RAEpoB (relative activity), 1A9” value was 16.5. In data set [2], the “RRp (relative resistance), 1A9/PTX10” value is 1.7. Moreover, the “potency increase as compared to EpoB, 1A9/PTX10” value in data set [2] (Taxol-resistant cell line) is 78 fold and 78.0 fold. The “RAEpoB (relative activity), 1A9/PTX10” value in data set [2] worked out at 78.0. Further, in data set [3] (EpoA-resistant cell line), the “potency (activity) increase as compared to EpoB, 1A9/A8” value is 17 fold and 16.7 fold. Besides, in data set [3], the “RRp (relative resistance), 1A9/A8” value amounted to 10.0. Also, the “RAEpoB (relative activity), 1A9/A8” value in data set [3] is on record as 16.7. In addition, the “RRp (relative resistance), A2780/AD10” value in data set [4] stood at 8.2. Further, in data set [4], the “potency enhancement over EpoB, A2780/AD10” value is on record as 4 fold. Moreover, the “potency increase as compared to EpoB, KB cell lines” value in data set [5] (KB cell lines (KB-31 and KB-8511 together)) is listed as 3-5 fold. For the same molecule, the “cytotoxicity across the tested cell lines, in words” value in data set [6] was “the most potent of all compounds tested; also recorded: outperformed EpoB in all five cancer cell lines tested”.

Consider `C/C(=C\c1ccn(C)n1)[C@@H]1C[C@@H]2O[C@]2(C)CCC[C@H](C)[C@H](O)[C@@H](C)C(=O)C(C)(C)[C@@H](O)CC(=O)O1` [Compound 14], for which the IC50 in data set [1] (setting [8]) came out at 0.5 ± 0.3 nM; in data set [1] (setting [9]), 0.5 nM; in data set [2] (setting [10]) it was 1.7 ± 1.1 nM; in data set [2] (setting [11]) it was 1.7 nM; in data set [3] (setting [12]), 0.8 ± 0.3 nM; in data set [3] (setting [13]) it was 0.8 nM. Also, the IC50 in data set [4] stood at 25.5 ± 15.1 nM; in data set [5] (setting [14]) it was 0.19 ± 0.01 nM; in data set [5] (setting [15]) it was 0.19 nM; in data set [7] (setting [16]) it was 0.25 nM; in data set [7] (setting [17]) it was 0.25 ± 0.04 nM. The “RAEpoB (relative activity), 1A9” value in data set [1] is 2.0. The “RRp (relative resistance), 1A9/PTX10” value in data set [2] was 3.4. In addition, the “RAEpoB (relative activity), 1A9/PTX10” value in data set [2] amounted to 4.6. In data set [3], the “RRp (relative resistance), 1A9/A8” value is on record as 1.6. In addition, the “RAEpoB (relative activity), 1A9/A8” value in data set [3] came out at 12.5. Also, the “RRp (relative resistance), A2780/AD10” value in data set [4] is 4.7. In addition, in data set [4], the “potency enhancement over EpoB, A2780/AD10” value was 20 fold. The “cytotoxicity across the tested cell lines, in words” value in data set [6] is given as “more potent cytotoxicities than EpoB across the board”.

`CC(=O)SCc1nc(/C=C(\C)[C@@H]2C[C@@H]3O[C@]3(C)CCC[C@H](C)[C@H](O)[C@@H](C)C(=O)C(C)(C)[C@@H](O)CC(=O)O2)cs1` [Compound 6]: the IC50 was found to be 5.4 ± 1.1 nM in data set [1] (setting [8]); 28.2 ± 9.3 nM in data set [2] (setting [10]); 49.8 ± 34.5 nM in data set [3] (setting [12]); 8.6 ± 3.3 nM in data set [4]; 1.18 ± 0.12 nM in data set [5] (setting [14]); 8.39 ± 1.37 nM in data set [7] (setting [17]). Moreover, the “RRp (relative resistance), 1A9/PTX10” value in data set [2] was found to be 5.2. The “RRp (relative resistance), 1A9/A8” value in data set [3] is given as 9.2. Further, the “RRp (relative resistance), A2780/AD10” value in data set [4] turned out to be 45.3. In data set [6], the “cytotoxicity across the tested cell lines, in words” value is “less potent than EpoB, exhibited high potency against several of the tested cell lines”.

Consider `CSCc1nc(/C=C(\C)[C@@H]2C[C@@H]3O[C@]3(C)CCC[C@H](C)[C@H](O)[C@@H](C)C(=O)C(C)(C)[C@@H](O)CC(=O)O2)cs1` [Compound 5], for which the IC50 came to 3.6 ± 1.4 nM in data set [1] (setting [8]); 43.3 ± 12 nM in data set [2] (setting [10]); 18.6 ± 11.3 nM in data set [3] (setting [12]); 82.2 ± 49.6 nM in data set [4]; 1.38 ± 0.05 nM in data set [5] (setting [14]); 1.97 ± 0.25 nM in data set [7] (setting [17]). The “RRp (relative resistance), 1A9/PTX10” value in data set [2] was 12.0. The “RRp (relative resistance), 1A9/A8” value in data set [3] is reported as 5.2. In data set [4], the “RRp (relative resistance), A2780/AD10” value is 15.2. Moreover, in data set [6], the “cytotoxicity across the tested cell lines, in words” value was “less potent than EpoB, exhibited high potency against several of the tested cell lines”.

These data come from patent publication US8003801B2 (The Scripps Research Institute, priority 2005, dated 2011).
